One data set concerns GR mRNA in LREX′ cells. Put plainly: GR mRNA in LREX′ cells cultured in vitro. It is filed as cell-based, human.
Data set [1] has as its system AR target genes in LREX′ cells. Description: Expression of AR target genes in LREX′ cell line in steroid depleted media (RT-qPCR). It is filed as cell-based, human. The source says: A. Normalized expression array signal (Illumina HT-12) of a suite of 74 AR target genes in control (n=10), 4 day (n=8), and LREX′ (n=8, right) xenograft tumors. Genes are ranked by degree of restoration of expression in resistant tissue ((Res-4 day)/(Control-4 day)). All resistant tissues were continued on anti-androgen treatment through time of harvest. B. Fractional restoration values of each of the 74 AR targets in LREX′ xenografts (n=8) or resistant tissues from the validation cohort (n=12). C. GR mRNA in resistant tissues used in B. D. Expression of AR target genes in the LREX′ cell line in steroid depleted media after 8 hours of treatment with the indicated agonists, in vitro. […] A. LnCaP/AR cells engineered to express GFP or GR were treated with indicated drugs. […] D. Control or AR siRNA knock-down in LREX′ followed by treatment with indicated drugs. […] Cells were treated in charcoal stripped media. Expression determined by RT-qPCR+/−s.e.m.
LREX′ cells were derived from a single enzalutamide resistant tumor that was harvested, disaggregated with collagenase treatment, and then maintained in RPMI supplemented with 20% FBS and 1 μM enzalutamide. Cells were initially grown on collagen-coated flasks until confluent and then were maintained on standard tissue culture dishes. CS1 were similarly derived from vehicle treated tumors and maintained in standard LNCaP/AR media. LNCaP/AR and LREX′ cells were cultured in phenol-red free RPMI with 10% charcoal-stripped FBS prior to drug treatments.

Data set [2] concerns AR target gene expression. Put plainly: AR target gene expression with GR antagonists. The format is cell-based.
For data set [3], the system named is LNCaP/AR xenograft tumors. Put plainly: LNCaP/AR xenograft pilot cohort, continual antiandrogen treatment until acquired resistance.
A further data set has as its target GR (Homo sapiens, UniProt P04150). Conditions: patients with Cushing syndrome; cited from earlier work.
Data set [4] concerns LREX′ cells transcriptome. Description: Expression profiling of LREX′ cells after DHT or Dex, AR and GR signatures. It is filed as cell-based, human. Conditions: enzalutamide 10 micromolar.
Another data set concerns LnCaP/AR and sub-lines. Put plainly: In vitro growth by cell counting (Vi-cell). It is filed as cell-based. The conditions noted are these: 1 micromolar enzalutamide. The method, then: . […] C. […] AUC=area under curve. […] .
(§1) VCaP: Cells were plated in triplicate and then assayed in triplicate at the time points indicated using CellTiter-Glo (Promega). Viability is plotted normalized to day 1. For knockdown studies, cells were infected and then plated 3 days later for the experiment without prior drug selection. LnCaP/AR and sub-lines: Equivalent numbers of cells were plated and then harvested and counted in triplicate at indicated time points using the Beckman Coulter Vi-Cell XR. Cells were passaged at each time point and identical numbers of cells re-plated. Fold increase in cell numbers were determined for each time interval.

Data set [5] has as its system GR protein in LREX′ cells. Put plainly: Intracellular GR flow cytometry of LREX′ cells on enzalutamide withdrawal and re-exposure. The conditions noted are these: LREX′off cells re-exposed to enzalutamide 1 micromolar. (In general: Flow cytometry measures light scatter and fluorescence of single cells or particles in a stream.)
Protocol: (§2) Cells were re-suspended in Fixation/Permeabilization working solution (eBioscience; San Diego, Calif., USA) at a concentration of 1-2×10^6 cells/ml for 30 minutes at room temperature. The cells were subsequently stained with primary antibodies, Rabbit (DA1E) mAb IgG XP® Isotype Control, androgen receptor (D6F11) XP® Rabbit mAb, or glucocorticoid receptor (D6H2L) XP® Rabbit mAb (Cell Signaling Technology; Danvers, Mass., USA) for 20 minutes at room temperature. The cells were washed twice with Flow Cytometry Staining Buffer (eBioscience; San Diego, Calif., USA), and then stained with secondary antibody, Allophycocyanin-AffiniPure F(ab′)2 Fragment Donkey Anti-Rabbit IgG (Jackson ImmunoResearch Laboratories, Inc.; Westgrove, Pa., USA) for 20 minutes at room temperature. Following two more washes, the cells were re-suspended in Flow Cytometry Staining Buffer and analyzed by flow cytometry on a LSRII (BD Biosciences; San Jose, Calif., USA) using FlowJo software (Tree Star, Ashland, Oreg., USA). For GR staining, cells were maintained in their standard media and treated with dexamethasone for 20 minutes prior to harvest to fully expose antigen. For AR staining, cells were cultured in charcoal stripped media without added ligands for 3 days prior to harvest.
Data set [6] relates to GR protein in CS1 or LnCaP/AR cells. Put plainly: Intracellular GR flow cytometry of CS1 and LnCaP/AR cells under enzalutamide. The conditions noted are these: enzalutamide 1 micromolar, 4 week experiment.
Protocol: as §2
The next data set deals with VCaP cells. Description: VCaP cell viability by CellTiter-Glo. The format is cell-based. Conditions: Enz 10 micromolar, standard culture conditions. The method, then: Enz=10 micromolar, Dex=100 nM, CMP 15=1 micromolar. A. Western blot analysis of prostate cancer cell lines. B, C and D. Cell viability assessed by CellTiter-Glo (Promega) assay and normalized to day 1 value after indicated treatments+/−s.e.m. E. Confirmation of GR knock-down by western blot after infection with GR targeting shRNA. F. Apoptosis as assessed by cPARP western blot after 3 days of indicated treatment. G. A suite of AR targets relevant to VCaP was defined (see methods) and normalized expression of each gene after 24 hours of indicated drug treatments is depicted by heat map and ranked by degree of induction with Dex. H. Expression of the top two genes from B. (KLK2 and FKBP5) after 24 hours of indicated treatments+/−s.e.m.
as §1, with “interval. […]” for “interval.”

The conditions of data set [7]: mouse, in vivo; cited from earlier work.
For the next data set, the system named is PSA. Put plainly: Maximal PSA decline in patients receiving enzalutamide. The conditions noted are these: enzalutamide 160 mg daily. It is filed as in vivo. The protocol:
Patients were treated with enzalutamide 160 mg daily. Bone marrow biopsy and aspirate (˜5 mL) were performed before treatment and at week 8. The bone marrow specimens were obtained by transiliac biopsy, and samples were processed according to standard MD Anderson Cancer Center decalcification and fixation procedures. After pathologic evaluation, samples were stored in the MD Anderson Cancer Center Prostate Cancer Tissue Bank. Imaging studies were performed at the time of suspected prostate cancer progression or at the treating physician's discretion, but generally not prior to 12 weeks post-treatment initiation. […] Retrospective analysis for GR was performed by IHC on […] formalin-fixed, paraffin-embedded bone marrow biopsy sections with anti-GR at a dilution of 1:200 (BD Transduction Laboratories #611227). A Dako autostainer and standard 3,3-diaminobenzidine were used. GR expression was assessed in a blinded fashion by two pathologists scoring at least 100 tumor cells per specimen. […]
To determine whether GR expression is a feature of clinical antiandrogen resistance, GR expression was evaluated in bone metastases from patients receiving enzalutamide. […] Using a GR IHC assay optimized for use in bone marrow samples, the percentage of GR-positive tumor cells was quantified and the data was dichotomized based on clinical response. […]

For data set [8] the following is noted: list continues over r20-r28; cited from earlier work.
The conditions of data set [9]: in vivo; cited from earlier work.
Setting [10] is: steroid depleted media, 8 hours.
The mark [11] stands for this setting: harvest after progression on continued treatment.

Sequence of GR (P04150 whole entry): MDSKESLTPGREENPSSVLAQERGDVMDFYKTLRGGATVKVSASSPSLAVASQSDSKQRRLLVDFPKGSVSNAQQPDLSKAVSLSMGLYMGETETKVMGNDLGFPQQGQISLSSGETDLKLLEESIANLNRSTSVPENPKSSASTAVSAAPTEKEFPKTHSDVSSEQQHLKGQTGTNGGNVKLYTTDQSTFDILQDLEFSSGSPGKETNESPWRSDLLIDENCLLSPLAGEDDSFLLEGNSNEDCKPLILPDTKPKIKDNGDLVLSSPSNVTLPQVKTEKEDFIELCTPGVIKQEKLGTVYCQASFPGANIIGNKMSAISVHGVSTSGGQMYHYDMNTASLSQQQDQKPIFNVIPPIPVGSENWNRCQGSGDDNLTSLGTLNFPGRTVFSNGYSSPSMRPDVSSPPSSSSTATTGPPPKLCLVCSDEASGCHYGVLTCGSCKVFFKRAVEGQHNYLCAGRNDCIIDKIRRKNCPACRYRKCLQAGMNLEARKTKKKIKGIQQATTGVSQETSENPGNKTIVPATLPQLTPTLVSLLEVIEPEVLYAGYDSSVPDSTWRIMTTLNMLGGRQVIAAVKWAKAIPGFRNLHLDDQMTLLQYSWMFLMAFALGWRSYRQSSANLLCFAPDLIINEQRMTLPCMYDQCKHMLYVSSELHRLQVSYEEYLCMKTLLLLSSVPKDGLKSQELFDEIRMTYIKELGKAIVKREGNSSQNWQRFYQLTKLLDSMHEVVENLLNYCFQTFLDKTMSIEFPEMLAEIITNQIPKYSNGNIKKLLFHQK

Turning to `C[C@]12CCC(=O)C[C@@H]1CC[C@@H]1[C@@H]2CC[C@]2(C)[C@@H](O)CC[C@@H]12` [DHT, dihydrotestosterone], the “GR mRNA levels” value in the data set with GR mRNA in LREX′ cells (LREX′, charcoal stripped media, 8 hours DHT exposure) was “reduced GR mRNA levels”. In data set [1] (setting [10]), the “induction of KLK3 (PSA)” value is recorded as “comparably induced”; the “regulation of 8 genes (7 AR targets and PSA)” value was “regulated”.
Regarding `CC#C[C@]1(O)CC[C@H]2[C@@H]3CCC4=CC(=O)CCC4=C3[C@@H](c3ccc4c(c3)OCO4)C[C@@]21C` [ORG 34517], the “AR target gene expression” value in data set [2] is reported as “activate AR target gene expression”.
As for `CNC(=O)c1ccc(N2C(=S)N(c3ccc(C#N)c(C(F)(F)F)c3)C(=O)C23CCC3)cc1F` [RD162], the “% Regression: D 28 Mean” value in [3] (LNCaP/AR xenografts in castrate mice, 10 mg/kg oral, day 28) is recorded as 80%. Further, in data set [3] (setting [11]), the “Day of Harvest: Mean” value is recorded as “D173” and the “Mean Tumor Volume (mm^3) at harvest” value is on record as 554 mm^3.
Take `CC#C[C@]1(O)CC[C@H]2[C@@H]3CCC4=CC(=O)CCC4=C3[C@@H](c3ccc(N(C)C)cc3)C[C@@]21C` [RU486, RU-486]: at GR, the “risk-benefit profile of GR inhibition in humans” value is recorded as “acceptable risk-benefit profile”.
For the molecule `CNC(=O)c1ccc(N2C(=S)N(c3ccc(C#N)c(C(F)(F)F)c3)C(=O)C2(C)C)cc1F` [enzalutamide], the “effect on Dex-induced gene expression (heatmap)” value in data set [4] was “not impacted”. Besides, in the data set on LnCaP/AR and sub-lines, the “antiproliferative effect in vitro” value is “weak antiproliferative effect”. Also, the “doubling time of GR expression induction” value in [5] stood at 6.8 days. In addition, the “median GR expression intensity” value in data set [6] was “no change in median expression intensity”. Besides, the “GR mRNA levels after enzalutamide withdrawal in vitro” value with GR mRNA in LREX′ cells (LREX′ cells, FBS media without enzalutamide, 23 days) is “dropped as early as 1 day after discontinuation”. For the same molecule, in the data set on GR mRNA in LREX′ cells (LREX′, 10 micromolar enzalutamide, 8 hours), the “effect of co-treatment on DHT reduction of GR mRNA” value was “reversed”. Also, the “effect on DHT regulation of 8 AR target genes” value in data set [1] (enzalutamide 10 micromolar) was “blocked”. Also, the “effect on Dex activity” value in [1] (enzalutamide 10 micromolar) is given as “did not notably affect”. Moreover, in the data set on VCaP cells, the “growth of VCaP cells” value is reported as “inhibited growth”. Besides, in data set [7], the half-life in mice entry is “prolonged half-life”. The “patients with maximal PSA decline greater than 50%” value with PSA (good responders (benefit > 6 months)) is 11 of 13; with PSA (poor responders (discontinued < 6 months)), 1 of 14.
As to `CC(C)C(=O)Nc1ccc([N+](=O)[O-])c(C(F)(F)F)c1` [flutamide], in data set [8], the “Adverse Drug Reactions” value is reported as “Hot flushes, loss of libido, impotence,”. Besides, in [9], the “Distribution: Protein-binding” value was “Distribution: Protein-binding: 90%” and the Excretion result is reported as “Urine, faeces (small amounts)”.

These data come from US10919929B2, “Glucocorticoid inhibitors for treatment of prostate cancer” (Sloan-Kettering Institute for Cancer Research, priority 2013, dated 2021).
